One test has as its system SAMD9 promoter. The test is described as follows: High-throughput luciferase reporter screen in HeLa line stably expressing 585 bp SAMD9 promoter fragment. In kind it is cell-based, human. Conditions: fold increase in promoter activity by luciferase assay vs cells treated with vehicle only, test drugs 10 μM, 24 hours; for fold induction at 10 µM: Homo sapiens, HeLa, read-out: SAMD9 expression fold change in HeLa reporter assay. How it is done: HeLa cell lines stably expressing the constructs were generated under neomycin selection. Briefly, pGL4.17 containing a SAMD9 promoter fragment spanning 585 bp upstream to the TSS and an empty pGL4.17 vector were transfected into HeLa cells. Forty eight hours after transfection, standard medium was replaced with medium containing 600 μg/ml G418 (Sigma-Aldrich), cells were kept under G418 selection and the selective medium was replaced approximately every 2-3 days. After two passages, colonies of stable cells were isolated, expanded and frozen for further use.
Test drugs were dispensed at a concentration of 10 μM by a robotic system into 96-well plates containing 9000 cells/well expressing the pGL4.17 reporter construct carrying a 585 bp SAMD9 promoter fragment operably linked to luciferase gene or the empty pGL4.17 luciferase construct (Promega cat. no. E6721). Medium was removed after 24 hours and the cells subjected to Steady-Glo luciferase lysis-substrate solution assay (Promega) as described above. Liquid handling was done with the Tecan (Tecan) Freedom 150 (Robotic & MCA liquid Handling System) and the luciferase reading was done with a robot integrated Tecan Infinite® M1000 reader.
This cell line was then used to robotically screen a total of 1496 compounds obtained from the National Cancer Institute Diversity Set III and Oncology Drugs Set III small molecule libraries.
On the technique in general: A reporter such as luciferase makes a cellular process visible.

The next test has as its system SAMD9. Description: SAMD9 RNA expression by qRT-PCR in HeLa cells. In kind it is cell-based, human. To be noted: fold increase in RNA gene expression vs cells treated with vehicle only. How it is done: HeLa cells were cultured in DMEM 4.5 g/l glucose medium containing 10% FCS, 1% L-glutamine and 1% penicillin and streptomycin (Biological Industries) and grown at 37° C. and 5% CO2.
Of note, when cells were incubated with CaCx and ApDx (NCI, MA USA), they were grown in the appropriate medium with 0.1% FCS only.
RNA was extracted from cell cultures using an RNA extraction kit (Roche Diagnostics, Mahheim, Germany). cDNA was synthesized from 500 ng of total RNA using the Verso cDNA kit (Thermo Fisher Scientific, Waltham, MA, USA). cDNA PCR amplification was carried out using the Fast SYBR Green Master Mix in a StepOnePlus™ Real-Time PCR System (Applied Biosystems, Foster City, CA, USA) with gene-specific intron-crossing oligonucleotide pairs listed in Table 1 (below). For quantification, standard curves were obtained using serially diluted cDNA amplified in the same qRT-PCR run. The melting temperature (Tm) of the amplified products was measured to confirm the specificity of the reaction conditions. Cycling conditions were as follows: 95° C. for 10 minutes, 95° C. for 10 seconds, 62° C. for 15 seconds, and 72° C. for 25 seconds for a total of 40 cycles. Each sample was analyzed in triplicate. mRNA expression level for target gene was normalized to GAPDH. The results are based the amount of target, normalized to an endogenous reference (IACTB) and relative to a calibrator, as calculated by 2-ΔΔCT. All samples were run in triplicate. The expression levels of target genes were expressed as mRNA relative units.
The potential ability of these 31 molecules to induce SAMD9 expression in cell cultures was then scrutinized.
For orientation: Real-time PCR tracks product formation cycle by cycle.

The structures appear in SMILES notation. Structures can show the parent of a compound that is named as a salt.

With `CN(CCc1ccccn1)c1ccc2c(c1)C(=O)c1ccccc1-2` [Compound 24048, 2-(methyl(2-(2-pyridinyl)ethyl)amino)-9H-fluoren-9-one], in the test with SAMD9 promoter, the fold induction at 10 µM stood at 2.84. Besides, the “SAMD9 expression fold change in HeLa cells” value with SAMD9 was 1.62 fold.

For the compound `OC(CN1CCCCC1)c1ccc(/C=C/c2ccc(Cl)cc2)cc1` (stereo not shown) [Compound 26040], the fold induction at 10 µM with SAMD9 promoter amounted to 3.38. In addition, the “SAMD9 expression fold change in HeLa cells” value in the test with SAMD9 amounted to 1.2 fold.

Turning to `COc1c2c(cc3oc(=O)ccc13)OC(C)(C)C=C2` [Compound 35542, Xanthoxylin N], in the test on SAMD9 promoter, the fold induction at 10 µM amounted to 4.08. Further, in the test with SAMD9, the “SAMD9 expression fold change in HeLa cells” value was 4.71 fold.

On to `O=C1C(O)=C(CC=C(Cl)Cl)C(=O)c2ccccc21` [Compound 126771, Dichlorolawsone], for which, in the test with SAMD9 promoter, the fold induction at 10 µM was found to be 2.23. Moreover, the “SAMD9 expression fold change in HeLa cells” value with SAMD9 amounted to 3.27 fold.

`Cc1cccc(NC(=O)C=Cc2ccc([N+](=O)[O-])cc2)c1` [Compound 139109, N-(3-methylphenyl)-3-(4-nitrophenyl)acrylamide]: the fold induction at 10 µM in the test on SAMD9 promoter was found to be 2.03. In addition, the “SAMD9 expression fold change in HeLa cells” value in the test on SAMD9 is 0.72 fold.

Consider `Cc1c2cnccc2c(C)c2c1c1ccccc1n2CCOC(=O)c1ccccc1` [Compound 163443, 2-(5,11-dimethyl-6H-pyrido [4,3-b]carbazol-6-yl) ethyl benzoate], for which the fold induction at 10 µM with SAMD9 promoter is 2.24. Moreover, in the test on SAMD9, the “SAMD9 expression fold change in HeLa cells” value came to 6.49 fold.

Take `CC[C@@]1(O)C[C@H](OC2CC(N(C)C)C(OC3CC(O)C(CC4CC(O)C(O)C(C)O4)C(C)O3)C(C)O2)c2c(cc3c(c2O)C(=O)c2c(O)ccc(O)c2C3=O)[C@H]1C(=O)OC` (stereo partly shown) [Compound 265211, Rhodirubin E]: in the test with SAMD9 promoter, the fold induction at 10 µM turned out to be 3.36. Moreover, the “SAMD9 expression fold change in HeLa cells” value with SAMD9 stood at 1.47 fold.

With `COc1cccc2c1C(=O)c1c(O)c3c(c(O)c1C2=O)C[C@@](O)(C(C)=O)C[C@@H]3O[C@H]1C[C@H](N(Cc2ccccc2)Cc2ccccc2)[C@H](O)[C@H](C)O1` [Compound 268242, N,N-Dibenzyldaunorubicin hydrochloride], in the test with SAMD9 promoter, the fold induction at 10 µM amounted to 4.84. Moreover, the “SAMD9 expression fold change in HeLa cells” value in the test on SAMD9 was 3.66 fold.

With `Nc1ncnc2c1nc(Cl)n2[C@@H]1O[C@@H]2COP(=O)(O)O[C@H]2[C@H]1O` [Compound 284751, Adenosine, 8-chloro-, cyclic 3′,5′-(hydrogen phosphate)], in the test on SAMD9 promoter, the fold induction at 10 µM was determined as 2.14. Moreover, the “SAMD9 expression fold change in HeLa cells” value with SAMD9 came out at 0.87 fold.

In the case of `O=C1Oc2ccccc2C(=O)/C1=C1/C=C(c2ccccc2)SS1` [Compound 293927, (3E)-3-(5-phenyl-3H-1,2-dithiol-3-ylidene)-2H-chromene-2,4(3H)-dione], the fold induction at 10 µM in the test with SAMD9 promoter stood at 2.82. For the same compound, in the test with SAMD9, the “SAMD9 expression fold change in HeLa cells” value came to 1.77 fold.

In the case of `COc1ccc(-c2csc(=[N+]3CCCCC3)s2)cc1` [Compound 302358, Piperidinium, 1-[4-(4-methoxyphenyl)-1,3-dithiol-2-ylidene]-, sulfate (1:1)], in the test with SAMD9 promoter, the fold induction at 10 µM was 2.72. In addition, the “SAMD9 expression fold change in HeLa cells” value in the test with SAMD9 is listed as 0.84 fold.

As for `COc1cc2c3c(n(C)c(=O)c2cc1OC)-c1cc2c(cc1C3=O)OCO2` [Compound 314622, 5H-[1,3]Dioxolo[5,6]indeno[1,2-c]isoquinoline-5,12-dione, 2,3-dimethoxy-6-methyl-], the fold induction at 10 µM with SAMD9 promoter is 2.31. Besides, the “SAMD9 expression fold change in HeLa cells” value in the test on SAMD9 is listed as 2.51 fold.

On to `COc1ccc2c(c1[N+](=O)[O-])CC[C@@H]1[C@@H]2CC[C@]2(C)C(=O)CC[C@@H]12` [Compound 321803, 4-Nitroestrone 3-methyl ether], for which the “SAMD9 expression fold change in HeLa reporter assay” value with SAMD9 promoter is listed as 2.71 fold.

Take `CN(C)c1ccc2c(SCC(=O)OCC(=O)[C@@]3(O)CC[C@H]4[C@@H]5CCC6=CC(=O)C=C[C@]6(C)[C@H]5C(=O)C[C@@]43C)c3ccc(N(C)C)cc3nc2c1` [Compound 337851, Predorine]: the fold induction at 10 µM in the test with SAMD9 promoter was 2.37. Further, in the test with SAMD9, the “SAMD9 expression fold change in HeLa cells” value amounted to 1.23 fold.

On to `CCN(CC)CCOc1ccccc1/C=C/c1noc2ccccc12` [Compound 601101, 2-(2-(2-(1,2-Benzisoxazol-3-yl)vinyl)phenoxy)-N,N-diethylethanamine hydrochloride], for which the fold induction at 10 µM in the test on SAMD9 promoter was 2.13.

As to `C[C@@H](CSC(=O)c1ccccc1)C(=O)N1c2ccccc2C[C@@H]1C(=O)O` [Compound 604535, (2R)-1-[(2R)-2-methyl-3-phenylcarbonylsulfanyl-propanoyl]-2,3-dihydroindole-2-carboxylic acid], the fold induction at 10 µM in the test on SAMD9 promoter was 2.26. The “SAMD9 expression fold change in HeLa cells” value with SAMD9 came out at 1.07 fold.

On to `CN(C)C(=S)/N=c1\ss/c(=N\C(=S)N(C)C)n1-c1ccc2c(c1)OCO2` [Compound 622589, 3,3′-[4-(1,3-benzodioxol-5-yl)-1,2,4-dithiazolidine-3,5-diylidene]bis[1,1-dimethyl(thiourea)]], for which the fold induction at 10 µM in the test with SAMD9 promoter amounted to 4.32. Moreover, the “SAMD9 expression fold change in HeLa cells” value in the test on SAMD9 is listed as 1.17 fold.

As for `Cc1cc(Cl)ccc1N1C(=O)C(=O)C(c2nc3ccccc3o2)C(=O)C1=O` [Compound 623051, 4-(1,3-Benzoxazol-2-yl)-1-(4-chloro-2-methylphenyl)-2,3,5,6-piperidinetetrone], the fold induction at 10 µM in the test with SAMD9 promoter came to 2.74. Also, the “SAMD9 expression fold change in HeLa cells” value in the test with SAMD9 stood at 0.97 fold.

In the case of `CCN(CC)CCNc1ccc2nc(C)n3c4ccc(OC)cc4c(=O)c1c23.Cl` [Compound 637993, 5-{[2-(diethylamino)ethyl]amino}-8-methoxy-1-methyl-6h-imidazo[4,5,1-de] acridin-6-one hydrochloride (1:1)], the fold induction at 10 µM in the test with SAMD9 promoter was found to be 3.7. Also, the “SAMD9 expression fold change in HeLa cells” value with SAMD9 amounted to 6.34 fold.

Regarding `S=C(Nc1nnc(-c2ccccc2)c(-c2ccccc2)n1)N(/N=C/C=C/c1ccccc1)c1ccccc1` [Compound 640637, 3-Phenylacrylaldehyde N′-(5,6-diphenyl-1,2,4-triazin-3-yl)-N-phenylthiosemicarbazone], the fold induction at 10 µM in the test with SAMD9 promoter worked out at 2.32. Besides, the “SAMD9 expression fold change in HeLa cells” value with SAMD9 was found to be 1.16 fold.

For `COc1ccc(/C(=N\O)C(c2ccc(OC)cc2)C2C(=O)Oc3ccccc32)cc1` (stereo not shown) [Compound 641607, 3-(2-(Hydroxyimino)-1,2-bis(4-methoxyphenyl)ethyl)-1-benzofuran-2(3H)-one], the fold induction at 10 µM in the test with SAMD9 promoter was found to be 3.25. Besides, in the test on SAMD9, the “SAMD9 expression fold change in HeLa cells” value stood at 1.27 fold.

Regarding `O=C(c1nc2ccc(Cl)cc2nc1O)C(O)c1ccc2c(c1)OCO2` (stereo not shown) [Compound 642649, 2-(1,3-Benzodioxol-5-yl)-1-(6-chloro-3-hydroxy-2-quinoxalinyl)-2-hydroxyethanone], the fold induction at 10 µM in the test on SAMD9 promoter came to 2.8. The “SAMD9 expression fold change in HeLa cells” value in the test with SAMD9 was 0.85 fold.

Regarding `CN(C)c1ccc(/C=C2\Cc3ccccc3C2=O)cc1Br` [Compound 643163, 2-(3-Bromo-4-dimethylaminobenzylidene)-1-indanone], the fold induction at 10 µM in the test on SAMD9 promoter turned out to be 2.64. In the test on SAMD9, the “SAMD9 expression fold change in HeLa cells” value is 0.79 fold.

In the case of `COc1ccc(/C=C2\Cc3ccccc3C2=O)cc1OC` [Compound 643174, 2-(3,4-Dimethoxybenzylidene)-1-indanone], in the test on SAMD9 promoter, the fold induction at 10 µM came out at 2.17. The “SAMD9 expression fold change in HeLa cells” value with SAMD9 worked out at 1.29 fold.

For the compound `COc1ccc(/C=C2\CCc3ccccc3C2=O)cc1OC` [Compound 643175, 2-(3,4-Dimethoxybenzylidene)-1-tetralone], the fold induction at 10 µM in the test on SAMD9 promoter came out at 2.47. Also, in the test with SAMD9, the “SAMD9 expression fold change in HeLa cells” value worked out at 0.89 fold.

Consider `CCN1C(=O)/C(=C\Nc2ccccc2)S/C1=N\Nc1ncc(CC(=O)Nc2ccccc2C)s1` [Compound 658350, 2-(2-(2-(5-(Anilinomethylene)-3-ethyl-4-oxo-1,3-thiazolidin-2-ylidene)hydrazino)-1,3-thiazol-5-yl)-N-(2-methylphenyl) acetamide], for which the fold induction at 10 µM in the test with SAMD9 promoter turned out to be 2.03. Moreover, the “SAMD9 expression fold change in HeLa cells” value in the test on SAMD9 was 1.01 fold.

As for `NC(Cc1ccc2oc3cc(=O)c4ccccc4c-3nc2c1)C(=O)O` [Compound 672425, 1,2-Benzo-8-(L-alanyl)-3-phenoxazone nitrate salt], the fold induction at 10 µM in the test on SAMD9 promoter turned out to be 2.11. In addition, the “SAMD9 expression fold change in HeLa cells” value in the test with SAMD9 was determined as 0.98 fold.

The values are drawn from patent US12023348B2, “EGR1 targeting molecules for the treatment of inflammatory and hyperproliferative conditions” (The Medical Research, Infrastructure and Health Services …, priority 2015, dated 2024).
